Legend:
Varroa mites = conditions: concentrated enough to kill the mites but not to harm the bees; cited from earlier work
[1] = Simulated bee-flight (drone propeller) thymol decay and model of thymol dosage on a worker bee; set-up: species or system honey bee; conditions: 1 mg thymol/Hydromed behind drone propellers, 6 hours per day, exponential decay
Protocol: As such, a single worker bee would pass through the DF-TE 40×, receiving ˜0.7 μg per passage, or 28 μg per day.

Cc1ccc(C(C)C)c(O)c1 [thymol]
therapeutic window of thymol vapor (Varroa mites): 5-15 microgram/liter of hive air | time until a single daily dose of thymol is exhausted on the bee abdomen [1]: ≤ 4 days
